Results published in ChEMBL document CHEMBL1201862, “PubChem BioAssay data set” (2004).
Calls of active or inactive are those of the source.

Legend:
[1] = target: Sphingosine 1-phosphate receptor 3 (Homo sapiens, UniProt Q99500); assay: Late stage counterscreen assay for S1P4 antagonists: Fluorescence dose response cell-based screening assay for antagonists of the Sphingosine 1-Phosphate Receptor 3 (S1P3). [Related pubchem assays (depositor defined):AID1510, AID1524, AID1692, AID1853, AID2332, AID489009, AID489017]; type: functional
[2] = target: Sphingosine 1-phosphate receptor 5 (Homo sapiens, UniProt Q9H228); assay: Late stage counterscreen assay for S1P4 antagonists: Fluorescence dose response cell-based screening assay for antagonists of the Sphingosine 1-Phosphate Receptor 5 (S1P5). [Related pubchem assays (depositor defined):AID1510, AID1524, AID1692, AID1853, AID2332, AID489009, AID489017]; type: functional
[3] = target: Sphingosine 1-phosphate receptor 2 (Homo sapiens, UniProt O95136); assay: Late stage counterscreen assay for S1P4 antagonists: Fluorescence dose response cell-based screening assay for antagonists of the Sphingosine 1-Phosphate Receptor 2 (S1P2). [Related pubchem assays (depositor defined):AID1510, AID1524, AID1692, AID1853, AID2332, AID489009, AID489017]; type: functional
[4] = target: Sphingosine 1-phosphate receptor 1 (Homo sapiens, UniProt P21453); assay: Late stage counterscreen assay for S1P4 antagonists: Fluorescence dose response cell-based screening assay for antagonists of the Sphingosine 1-Phosphate Receptor 1 (S1P1). [Related pubchem assays (depositor defined):AID1510, AID1524, AID1692, AID1853, AID2332, AID489009, AID489017]; type: functional
[5] = target: T1, Alkaline phosphatase, tissue-nonspecific isozyme (Homo sapiens, UniProt P05186); assay: human TNAP enzyme inhibitors, SAR follow-up, biochemical, luminescent, dose response (AID 1056)
T1 sequence (P05186 whole entry): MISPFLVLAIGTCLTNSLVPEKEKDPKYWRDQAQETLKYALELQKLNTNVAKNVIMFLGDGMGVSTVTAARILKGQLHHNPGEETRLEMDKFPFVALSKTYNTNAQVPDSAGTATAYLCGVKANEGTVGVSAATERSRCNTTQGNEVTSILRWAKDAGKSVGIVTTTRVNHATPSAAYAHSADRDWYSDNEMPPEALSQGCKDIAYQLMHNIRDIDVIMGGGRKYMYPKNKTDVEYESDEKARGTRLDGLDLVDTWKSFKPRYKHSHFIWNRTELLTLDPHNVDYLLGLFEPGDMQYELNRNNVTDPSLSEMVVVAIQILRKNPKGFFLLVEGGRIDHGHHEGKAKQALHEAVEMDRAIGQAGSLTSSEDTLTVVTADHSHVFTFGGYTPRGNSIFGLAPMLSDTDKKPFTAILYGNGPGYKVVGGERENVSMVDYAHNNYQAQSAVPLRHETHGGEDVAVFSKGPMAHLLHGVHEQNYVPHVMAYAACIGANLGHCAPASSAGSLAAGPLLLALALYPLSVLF

[6] = target: T1, Alkaline phosphatase, tissue-nonspecific isozyme; assay: TNAP enzyme inhibition by screening hits, dose response, selectivity assay for mouse IAP inhibitor project, biochemical, human TNAP, uHTS hits (AID 488906); type: functional
[7] = target: T2, RNA-binding protein pos-1 (Caenorhabditis elegans, UniProt G5EF15); assay: inhibitors of POS-1/mex-3 RNA binding, dose response, biochemical, fluorescence polarization (AID 1964);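 also: purified POS-1 fused to maltose binding protein made in E. coli; potency of compounds blocking POS-1 binding to fluorescent RNA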
T2 sequence (G5EF15 whole entry): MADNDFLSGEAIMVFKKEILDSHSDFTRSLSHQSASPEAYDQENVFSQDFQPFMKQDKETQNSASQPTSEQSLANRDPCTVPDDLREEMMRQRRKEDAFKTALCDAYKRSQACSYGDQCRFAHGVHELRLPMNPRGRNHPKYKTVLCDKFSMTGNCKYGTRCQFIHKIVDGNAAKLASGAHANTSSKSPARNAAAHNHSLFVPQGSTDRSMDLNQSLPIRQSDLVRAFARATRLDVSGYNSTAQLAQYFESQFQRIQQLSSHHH

[8] = target: T3, Intestinal-type alkaline phosphatase (Homo sapiens, UniProt P09923); assay: human IAP inhibitors, dose response, biochemical, luminescent, uHTS hits, set 2 (AID 488793); type: functional
[9] = target: T1, Alkaline phosphatase, tissue-nonspecific isozyme; assay: TNAP enzyme activators, dose response, selectivity assay for human IAP activator project, biochemical, TNAP isozyme, human IAP uHTS hits (AID 488886); type: functional;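 also: potency of compounds raising TNAP activity as a selectivity check on IAP activators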
[10] = target: Alkaline phosphatase, placental type (Homo sapiens, UniProt P05187); assay: PLAP enzyme inhibitors, confirmation, biochemical, luminescence (AID 1512); type: functional
[11] = target: T4, Intestinal-type alkaline phosphatase (Mus musculus, UniProt P24822); assay: PubChem AID 488874; type: functional
[12] = target: T3, Intestinal-type alkaline phosphatase; assay: Dose Response confirmation of uHTS hits from a small molecule inhibitors of human intestinal alkaline phosphatase via a luminescent assay. [Related pubchem assays (depositor defined):AID2544, AID2574]; type: functional
[13] = target: T3, Intestinal-type alkaline phosphatase; assay: activation of human intestinal alkaline phosphatase – biochemical, dose response (AID 488873); type: functional
[14] = target: T5, Zinc finger protein mex-5 (Caenorhabditis elegans, UniProt Q9XUB2); assay: MEX-5/TCR-2 RNA interaction inhibitors, dose response, biochemical, C. elegans, fluorescence polarization (AID 1960)
T5 sequence (Q9XUB2 whole entry): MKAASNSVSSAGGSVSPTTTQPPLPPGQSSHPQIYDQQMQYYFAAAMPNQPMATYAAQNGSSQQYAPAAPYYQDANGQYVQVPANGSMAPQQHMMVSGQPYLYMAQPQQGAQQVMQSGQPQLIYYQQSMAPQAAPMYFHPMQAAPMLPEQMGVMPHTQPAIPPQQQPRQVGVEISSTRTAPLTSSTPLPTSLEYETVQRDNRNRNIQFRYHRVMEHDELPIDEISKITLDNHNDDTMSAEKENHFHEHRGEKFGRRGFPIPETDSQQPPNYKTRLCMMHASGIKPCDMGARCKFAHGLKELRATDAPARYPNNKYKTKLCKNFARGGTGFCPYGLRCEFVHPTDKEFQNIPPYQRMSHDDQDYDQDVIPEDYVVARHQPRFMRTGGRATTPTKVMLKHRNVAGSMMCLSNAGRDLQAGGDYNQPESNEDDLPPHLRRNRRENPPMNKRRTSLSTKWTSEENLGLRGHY

[15] = target: T4, Intestinal-type alkaline phosphatase; assay: PubChem AID 488785; type: functional
Cytochrome P450 2D6 = Cytochrome P450 2D6 (Homo sapiens, UniProt P10635);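 also: CYP2D6 member of a cytochrome P450 panel assay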
Cytochrome P450 2C19 = Cytochrome P450 2C19 (Homo sapiens, UniProt P33261); assay: Cytochrome panel assay with activity outcomes. Panel member name: p450-cyp2c19 Compounds with AC50 equal or less than 10 uM are considered active; type: functional; settings: read-out: AC50
Cytochrome P450 2C9 = Cytochrome P450 2C9 (Homo sapiens, UniProt P11712)
[16] = target: DNA dC->dU-editing enzyme APOBEC-3G (Homo sapiens, UniProt Q9HC16); assay: Dose Response confirmation of small molecule APOBEC3G DNA Deaminase Inhibitors via a fluorescence-based single-stranded DNA deaminase assay. [Related pubchem assays (depositor defined):AID493012, AID493028]; type: functional
[17] = target: Induced myeloid leukemia cell differentiation protein Mcl-1 (Homo sapiens, UniProt Q07820); type: functional
[18] = target: T6, Apoptotic protease-activating factor 1 (Homo sapiens, UniProt O14727); assay: activation of Apaf-1 mediated apoptosis – fluorescent, uHTS hits, dose response (AID 588554); type: functional
T6 sequence (O14727 whole entry): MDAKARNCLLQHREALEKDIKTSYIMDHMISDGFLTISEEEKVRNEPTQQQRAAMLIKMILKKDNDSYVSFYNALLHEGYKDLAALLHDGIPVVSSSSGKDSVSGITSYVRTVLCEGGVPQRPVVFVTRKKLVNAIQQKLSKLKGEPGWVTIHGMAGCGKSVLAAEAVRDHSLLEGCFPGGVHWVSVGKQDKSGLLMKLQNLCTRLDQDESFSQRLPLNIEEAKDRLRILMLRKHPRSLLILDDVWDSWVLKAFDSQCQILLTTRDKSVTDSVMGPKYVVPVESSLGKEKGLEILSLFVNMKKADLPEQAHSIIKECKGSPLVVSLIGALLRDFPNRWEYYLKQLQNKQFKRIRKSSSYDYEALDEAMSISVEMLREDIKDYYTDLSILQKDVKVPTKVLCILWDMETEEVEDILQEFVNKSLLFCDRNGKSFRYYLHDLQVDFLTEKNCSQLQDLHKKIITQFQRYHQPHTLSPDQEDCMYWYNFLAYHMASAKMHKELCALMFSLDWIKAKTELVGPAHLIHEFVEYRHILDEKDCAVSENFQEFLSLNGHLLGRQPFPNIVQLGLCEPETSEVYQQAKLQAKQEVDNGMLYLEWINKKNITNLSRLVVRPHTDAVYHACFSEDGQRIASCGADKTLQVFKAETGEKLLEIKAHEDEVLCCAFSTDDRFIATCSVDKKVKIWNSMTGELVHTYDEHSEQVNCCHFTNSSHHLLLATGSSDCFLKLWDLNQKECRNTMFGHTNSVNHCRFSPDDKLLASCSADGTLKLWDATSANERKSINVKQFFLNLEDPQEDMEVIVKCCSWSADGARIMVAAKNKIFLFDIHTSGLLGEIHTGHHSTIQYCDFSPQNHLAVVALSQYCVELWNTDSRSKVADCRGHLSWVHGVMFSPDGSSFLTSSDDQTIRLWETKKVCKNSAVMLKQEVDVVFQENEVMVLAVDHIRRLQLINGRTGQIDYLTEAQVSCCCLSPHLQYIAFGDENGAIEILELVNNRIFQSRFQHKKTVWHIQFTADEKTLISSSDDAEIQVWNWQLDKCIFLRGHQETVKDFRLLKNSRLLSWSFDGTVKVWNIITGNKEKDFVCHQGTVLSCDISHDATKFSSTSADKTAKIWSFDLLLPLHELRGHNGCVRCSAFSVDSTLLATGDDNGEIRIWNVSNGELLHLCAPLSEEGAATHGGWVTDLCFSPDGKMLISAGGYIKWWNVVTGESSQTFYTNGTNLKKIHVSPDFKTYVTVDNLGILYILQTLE

[19] = target: T7, Voltage-gated N-type calcium channel alpha-1B subunit/Amyloid beta A4 precursor protein-binding family A member 1 (Homo sapiens, UniProt Q00975+Q02410); type: protein assay
[20] = target: DNA dC->dU-editing enzyme APOBEC-3A (Homo sapiens, UniProt P31941); assay: APOBEC3A DNA deaminase inhibitors, dose response, biochemical (AID 504722); type: functional
[21] = target: T7, Voltage-gated N-type calcium channel alpha-1B subunit/Amyloid beta A4 precursor protein-binding family A member 1; type: protein assay; remark: listed apart in the source
[22] = target: T8, Small ubiquitin-related modifier 1 (Homo sapiens, UniProt P63165); assay: inhibitors of SUMO1 partner interactions, dose response, biochemical, FRET (AID 624383); type: functional; settings: read-out: IC50_Mean
[23] = target: T8, Small ubiquitin-related modifier 1; assay: inhibitors of SUMO1 peptide binding, dose response, biochemical, fluorescence polarization, uHTS hits (AID 624382); type: functional; settings: read-out: IC50_Mean
[24] = target: DNA (cytosine-5)-methyltransferase 1 (Homo sapiens, UniProt P26358); assay: DNMT1 methyltransferase inhibitors, confirmation, biochemical, fluorescent molecular beacon (AID 602386); type: functional
[25] = target: Lysine-specific demethylase 4C (Homo sapiens, UniProt Q9H3R0); assay: GASC-1 (JMJD2C) histone demethylase inhibitors, dose response, biochemical, DELFIA europium, cherry-picked samples (AID 488835); type: functional
[26] = target: T3, Intestinal-type alkaline phosphatase; assay: inhibition of human intestinal alkaline phosphatase – biochemical, dose response (AID 488876); type: functional
[27] = target: T9, Calpain-2 catalytic subunit (Sus scrofa, UniProt P43367); assay: pig calpain II inhibitor potency, dose response, biochemical, fluorogenic peptide substrate (AID 1420); type: functional
T9 sequence (P43367 whole entry): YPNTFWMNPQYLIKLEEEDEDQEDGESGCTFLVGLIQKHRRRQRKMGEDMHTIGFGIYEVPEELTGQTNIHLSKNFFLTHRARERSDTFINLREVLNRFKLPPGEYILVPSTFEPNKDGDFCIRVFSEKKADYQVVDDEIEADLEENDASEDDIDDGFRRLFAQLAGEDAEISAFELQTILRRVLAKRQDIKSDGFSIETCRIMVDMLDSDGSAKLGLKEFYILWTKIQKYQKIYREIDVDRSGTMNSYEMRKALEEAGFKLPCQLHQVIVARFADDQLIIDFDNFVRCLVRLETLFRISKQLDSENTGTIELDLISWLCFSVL

Prothrombin = Prothrombin (Homo sapiens, UniProt P00734); assay: Thrombin 1536 HTS Dose Response Confirmation. [Related pubchem assays: 1046 (Thrombin 1536 HTS; hits were confirmed in this assay)]; type: functional

T3 sequence (P09923 whole entry): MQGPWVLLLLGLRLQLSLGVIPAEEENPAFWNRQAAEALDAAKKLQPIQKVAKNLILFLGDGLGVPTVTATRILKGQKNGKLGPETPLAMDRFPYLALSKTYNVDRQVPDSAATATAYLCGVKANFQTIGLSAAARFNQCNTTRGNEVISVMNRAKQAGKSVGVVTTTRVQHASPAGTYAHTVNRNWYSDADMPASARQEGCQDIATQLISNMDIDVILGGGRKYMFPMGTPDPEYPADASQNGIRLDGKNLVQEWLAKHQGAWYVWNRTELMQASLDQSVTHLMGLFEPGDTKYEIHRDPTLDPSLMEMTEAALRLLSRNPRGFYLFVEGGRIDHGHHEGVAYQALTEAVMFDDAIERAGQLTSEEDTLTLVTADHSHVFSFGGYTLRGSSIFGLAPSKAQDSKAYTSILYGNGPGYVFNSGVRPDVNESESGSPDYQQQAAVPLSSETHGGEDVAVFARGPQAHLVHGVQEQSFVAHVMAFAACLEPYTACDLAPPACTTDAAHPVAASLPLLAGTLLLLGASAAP
T4 sequence (P24822 whole entry): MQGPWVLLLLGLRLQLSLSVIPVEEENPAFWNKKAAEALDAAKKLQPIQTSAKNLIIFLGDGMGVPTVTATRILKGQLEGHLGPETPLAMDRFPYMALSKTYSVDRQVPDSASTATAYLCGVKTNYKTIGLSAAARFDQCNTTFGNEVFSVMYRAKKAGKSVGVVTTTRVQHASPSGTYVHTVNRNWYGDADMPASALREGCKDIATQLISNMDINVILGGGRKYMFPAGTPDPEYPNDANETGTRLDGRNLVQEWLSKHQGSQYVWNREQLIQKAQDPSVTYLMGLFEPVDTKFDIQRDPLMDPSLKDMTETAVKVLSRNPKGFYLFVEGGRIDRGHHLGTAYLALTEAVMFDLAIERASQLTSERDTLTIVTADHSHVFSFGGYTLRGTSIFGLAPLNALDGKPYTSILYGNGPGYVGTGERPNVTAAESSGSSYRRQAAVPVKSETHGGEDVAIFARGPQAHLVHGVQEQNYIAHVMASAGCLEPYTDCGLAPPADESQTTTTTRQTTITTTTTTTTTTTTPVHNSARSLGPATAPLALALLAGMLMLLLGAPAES
T7 sequence (Q00975 whole entry): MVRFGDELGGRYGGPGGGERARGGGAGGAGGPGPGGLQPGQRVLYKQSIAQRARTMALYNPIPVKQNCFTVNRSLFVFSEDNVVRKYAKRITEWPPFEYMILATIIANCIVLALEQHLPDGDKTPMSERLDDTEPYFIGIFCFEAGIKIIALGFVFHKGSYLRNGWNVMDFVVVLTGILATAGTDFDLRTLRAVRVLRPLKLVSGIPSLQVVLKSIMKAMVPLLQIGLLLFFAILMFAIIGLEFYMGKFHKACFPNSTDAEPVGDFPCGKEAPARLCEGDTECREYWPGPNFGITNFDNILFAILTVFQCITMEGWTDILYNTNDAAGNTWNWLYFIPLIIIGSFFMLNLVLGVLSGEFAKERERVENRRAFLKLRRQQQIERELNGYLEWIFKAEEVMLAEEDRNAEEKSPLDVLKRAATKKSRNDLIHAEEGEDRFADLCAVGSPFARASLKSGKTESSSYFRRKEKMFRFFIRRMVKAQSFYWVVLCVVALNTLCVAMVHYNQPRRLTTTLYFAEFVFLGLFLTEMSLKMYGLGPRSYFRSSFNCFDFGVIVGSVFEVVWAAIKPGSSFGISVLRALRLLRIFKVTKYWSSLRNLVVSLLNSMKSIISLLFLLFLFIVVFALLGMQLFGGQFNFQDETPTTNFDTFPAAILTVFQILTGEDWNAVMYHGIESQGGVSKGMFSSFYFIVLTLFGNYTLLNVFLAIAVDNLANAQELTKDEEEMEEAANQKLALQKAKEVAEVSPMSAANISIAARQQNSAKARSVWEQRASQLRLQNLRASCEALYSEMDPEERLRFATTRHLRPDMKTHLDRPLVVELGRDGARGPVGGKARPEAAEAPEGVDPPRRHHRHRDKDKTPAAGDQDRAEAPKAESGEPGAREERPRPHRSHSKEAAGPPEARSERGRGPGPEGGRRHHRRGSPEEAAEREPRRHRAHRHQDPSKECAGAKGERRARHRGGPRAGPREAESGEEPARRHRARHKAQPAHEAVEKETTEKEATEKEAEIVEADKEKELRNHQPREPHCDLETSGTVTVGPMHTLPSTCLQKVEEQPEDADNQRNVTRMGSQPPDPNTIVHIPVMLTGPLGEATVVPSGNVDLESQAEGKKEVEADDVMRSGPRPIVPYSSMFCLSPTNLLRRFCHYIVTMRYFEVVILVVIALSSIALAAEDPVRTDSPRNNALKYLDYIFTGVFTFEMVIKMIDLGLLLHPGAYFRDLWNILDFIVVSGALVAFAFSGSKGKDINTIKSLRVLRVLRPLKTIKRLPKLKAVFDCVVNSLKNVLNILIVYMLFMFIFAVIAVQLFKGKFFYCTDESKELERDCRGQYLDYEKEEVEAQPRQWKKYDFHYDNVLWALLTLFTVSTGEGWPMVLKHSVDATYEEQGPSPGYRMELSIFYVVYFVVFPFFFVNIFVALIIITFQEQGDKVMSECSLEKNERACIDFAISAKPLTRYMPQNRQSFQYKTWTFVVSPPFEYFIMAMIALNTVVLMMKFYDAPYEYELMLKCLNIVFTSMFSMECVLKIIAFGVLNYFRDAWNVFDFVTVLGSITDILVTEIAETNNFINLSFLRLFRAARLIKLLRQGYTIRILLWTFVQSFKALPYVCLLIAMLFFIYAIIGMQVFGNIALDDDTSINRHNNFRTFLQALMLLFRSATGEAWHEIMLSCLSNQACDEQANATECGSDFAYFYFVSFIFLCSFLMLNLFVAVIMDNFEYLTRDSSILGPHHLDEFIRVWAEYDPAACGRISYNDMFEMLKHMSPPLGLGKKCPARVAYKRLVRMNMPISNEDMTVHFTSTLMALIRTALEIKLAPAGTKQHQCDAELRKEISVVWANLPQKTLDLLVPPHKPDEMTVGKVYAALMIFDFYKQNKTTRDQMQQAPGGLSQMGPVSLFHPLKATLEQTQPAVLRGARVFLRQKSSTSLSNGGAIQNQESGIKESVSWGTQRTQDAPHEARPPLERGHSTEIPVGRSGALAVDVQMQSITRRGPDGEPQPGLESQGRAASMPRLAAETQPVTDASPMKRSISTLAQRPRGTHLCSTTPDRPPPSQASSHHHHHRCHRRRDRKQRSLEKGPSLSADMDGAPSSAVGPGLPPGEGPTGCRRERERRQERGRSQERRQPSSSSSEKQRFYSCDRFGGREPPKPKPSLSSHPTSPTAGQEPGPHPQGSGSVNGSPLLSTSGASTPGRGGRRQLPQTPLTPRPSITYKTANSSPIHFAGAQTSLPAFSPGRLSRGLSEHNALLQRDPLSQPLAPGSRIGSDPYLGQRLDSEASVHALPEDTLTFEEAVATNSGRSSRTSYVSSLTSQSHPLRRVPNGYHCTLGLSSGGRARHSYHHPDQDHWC
T7 sequence (Q02410 whole entry): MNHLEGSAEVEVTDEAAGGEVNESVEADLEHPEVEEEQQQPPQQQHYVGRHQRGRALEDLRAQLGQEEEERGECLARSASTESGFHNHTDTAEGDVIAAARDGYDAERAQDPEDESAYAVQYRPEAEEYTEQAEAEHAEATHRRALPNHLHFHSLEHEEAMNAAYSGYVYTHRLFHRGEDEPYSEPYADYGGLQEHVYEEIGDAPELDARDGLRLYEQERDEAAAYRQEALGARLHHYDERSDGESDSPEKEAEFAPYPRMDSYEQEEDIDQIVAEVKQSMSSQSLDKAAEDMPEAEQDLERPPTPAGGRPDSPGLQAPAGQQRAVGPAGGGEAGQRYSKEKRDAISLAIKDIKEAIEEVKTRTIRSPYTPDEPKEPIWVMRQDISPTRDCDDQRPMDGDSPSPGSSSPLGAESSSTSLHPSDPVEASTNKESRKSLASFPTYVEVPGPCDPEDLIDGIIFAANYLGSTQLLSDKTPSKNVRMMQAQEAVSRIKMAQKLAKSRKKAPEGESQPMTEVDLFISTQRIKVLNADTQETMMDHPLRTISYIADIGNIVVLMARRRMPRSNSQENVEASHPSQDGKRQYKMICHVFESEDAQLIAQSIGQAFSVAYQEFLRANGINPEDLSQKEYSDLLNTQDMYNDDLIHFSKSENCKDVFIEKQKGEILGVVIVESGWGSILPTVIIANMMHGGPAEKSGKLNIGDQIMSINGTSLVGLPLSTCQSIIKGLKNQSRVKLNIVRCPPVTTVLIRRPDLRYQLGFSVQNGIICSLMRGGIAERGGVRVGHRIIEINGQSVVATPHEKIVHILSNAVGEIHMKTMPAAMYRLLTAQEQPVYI
T8 sequence (P63165 whole entry): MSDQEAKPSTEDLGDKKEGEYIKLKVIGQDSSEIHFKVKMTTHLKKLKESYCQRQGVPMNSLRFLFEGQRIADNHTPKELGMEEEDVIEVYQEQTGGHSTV
Sequence of Cytochrome P450 2C19 (P33261 whole entry): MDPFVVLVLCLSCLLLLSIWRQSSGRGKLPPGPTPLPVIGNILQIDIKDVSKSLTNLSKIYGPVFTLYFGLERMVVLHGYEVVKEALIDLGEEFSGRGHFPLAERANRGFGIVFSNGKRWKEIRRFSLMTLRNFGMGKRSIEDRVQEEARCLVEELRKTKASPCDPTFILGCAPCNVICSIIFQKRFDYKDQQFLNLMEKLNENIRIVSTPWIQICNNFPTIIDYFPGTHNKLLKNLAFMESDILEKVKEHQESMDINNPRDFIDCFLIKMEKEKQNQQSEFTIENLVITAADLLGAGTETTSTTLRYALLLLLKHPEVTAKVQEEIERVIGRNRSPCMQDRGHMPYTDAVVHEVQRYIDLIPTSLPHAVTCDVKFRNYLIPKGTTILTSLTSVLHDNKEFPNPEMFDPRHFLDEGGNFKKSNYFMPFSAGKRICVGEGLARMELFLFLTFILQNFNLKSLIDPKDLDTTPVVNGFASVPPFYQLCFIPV
Sequence of DNA dC->dU-editing enzyme APOBEC-3A (P31941 whole entry): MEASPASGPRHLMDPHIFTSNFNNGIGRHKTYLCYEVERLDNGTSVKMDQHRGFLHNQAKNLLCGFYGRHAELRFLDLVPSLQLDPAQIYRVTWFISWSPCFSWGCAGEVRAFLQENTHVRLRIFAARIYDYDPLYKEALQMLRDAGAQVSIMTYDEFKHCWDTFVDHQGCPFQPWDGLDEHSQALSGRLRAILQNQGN

## Cc1ccc(C)c(NC(=O)c2ccc(-c3cc(Cl)ccc3Cl)o2)c1
[1]
  IC50: > 25 µM (inactive)
[2]
  IC50: > 25 µM (inactive)
[3]
  IC50: > 25 µM (inactive)
[4]
  IC50: > 25 µM (inactive)

## CNc1nnc(-c2cc3ccccc3oc2=O)s1
[5]
  IC50: > 100 µM (inactive)
[6]
  IC50: 25.8 µM (active)
[7]
  EC50: > 300 µM (not active)
[8]
  IC50: 1.29 µM (active)
[9]
  EC50: > 100 µM (inactive)
[10]
  IC50: 5.81 µM (active)
[11]
  IC50: 5.83 µM (active)
[12]
  IC50: 1.76 µM (active)
[13]
  EC50: > 100 µM (inactive)
[14]
  EC50: > 300 µM (not active)
[15]
  IC50: 1.53 µM (active)

## CCCOc1ccc(/C=C/C(=O)Nc2ccc([N+](=O)[O-])cc2C)cc1
Cytochrome P450 2D6
  AC50: inconclusive
Cytochrome P450 2C19
  AC50: 0.631 µM (inconclusive)
Cytochrome P450 2C9
  AC50: 1.41 µM (inconclusive)

## C=C(C)C(=O)Nc1cccc(C2=NOC3(C2)C[C@@H](C(N)=O)N(C(=O)/C=C/C=C/C)C3)c1 (stereo partly drawn)
[16]
  IC50: 3.41 µM (active)
[17]
  IC50: 2.3 µM (active)
[18]
  EC50: 1.17 µM (active)
[19]
  IC50: 34.3 µM (active)
[20]
  IC50: > 100 µM (inactive)
[21]
  IC50: 10 µM (active)
[22]
  IC50: 1.72 µM (active)
[23]
  IC50: > 66.6 µM (inactive)
[24]
  IC50: 3.25 µM (active)

## O=C(Nc1cc(S(=O)(=O)N2CCOCC2)ccc1N1CCCC1)c1ccc(F)cc1
[25]
  AC50: 20.1 µM (active)

## COc1cccc(NC(S)=NCCC(c2ccccc2)c2ccccc2)c1
[6]
  IC50: 92.7 µM (active)
[26]
  IC50: > 100 µM (inactive)
[27]
  IC50: 3.72 µM (not active)
Prothrombin
  IC50: > 50 µM (not active)
[15]
  IC50: 5.12 µM (active)
